From US20080200393A1, “Method and Composition For Treating Angiogenesis and For Preventing Cancer Progression and Metastasis Comprising a Prostate Secretory Protein (Psp94) Family Member” (Ambrillia Biopharma Inc., priority 2004, published 2008)
Where no end group is shown, it is not given here.

Tests used:
MMP-9 = assay: Gelatin zymography of MatLyLu cell culture media; type: cell-based; conditions: MatLyLu cells, 500 ug/ml and 1 mg/ml, 50 ug/ml collagen type-I, serum free, 72 hrs
Experimental: Zymography. Zymography is a technique generally used to analyze the activity of matrix metalloproteinases (MMPs) in biological samples. It involves the electrophoretic separation of proteins under denaturing (Sodium Dodecyl Sulfate (SDS)) but non-reducing conditions through a polyacrylamide gel containing gelatin (for example, 10% gel containing 1 mg/ml gelatin for MMP-9 and MMP-2 assays). The resolved proteins are re-natured by exchanging SDS with a non-ionic detergent such as Triton X-100 and the gel is incubated in an incubation buffer for activation of MMP-2 and MMP-9 (for example at 37° C. for 18 hrs). The gel is stained with Coomassie blue and the MMP-2 and MMP-9 bands may be visualized as clear bands against a blue background (i.e., the MMPs degrade the gelatin and are visualized as clear bands; pro MMP-2 is 68 kDa and pro-MMP-9 is 92 kDa). These bands can be quantified using densitometry. For example, prior to stimulation, quiescent HUVEC were serum-starved for 16 h in the presence or absence of PCK3145 or PD98059 and then stimulated with VEGF. […] Gelatinolytic activity was detected as unstained bands on a blue background. […]
The media were collected after 72 hours of exposure to the PCK3145 derivative and subjected to gelatin zymography. […] The band intensities were determined using the Image Quant software (version 5.0) from molecular Dynamics. […]

HUVEC = HUVEC migration assay (modified Boyden chambers, gelatin-coated filters); type: cell-based, Human
Experimental: Migration Assays. Transwells filters (8-μm pore size; Costar, Cambridge, Mass.) were pre-coated with 0.5% gelatin/PBS for 24 h at 4° C. The transwells were then washed with PBS and assembled in 24-well plates. The upper chamber of each transwell was filled with 100 μl of HUVEC (1×10^6 cells/ml) and cells were allowed to adhere for 1 h. Cells were then treated for 2 h by adding 100 μl of 2-fold concentrated drug solution prepared in serum-free medium into the upper chamber and 600 μl of the drug solution into the lower chamber. Migration was initiated by adding VEGF (10 ng/ml), or S1P (1 μM) to the lower chamber. The plate was placed at 37° C. in 5% CO2/95% air for 4 h. Cells that had migrated to the lower surface of the filters were fixed with 10% formalin phosphate and stained with 0.1% Crystal Violet/20% (v/v) methanol. The migration was quantified using computer-assisted imaging and data are expressed as the average density of migrated cells per four fields (magnification×50).
Cells were plated onto gelatin-coated filters inserted in modified Boyden chemotactic chambers. The effect of PCK3145 on basal migration and on VEGF-induced migration was monitored by the number of cells that had migrated comparatively to untreated control cells. HUVEC were dislodged from the flasks by trypsinization, washed and resuspended in serum-free media. Cells were placed onto gelatin-coated filters inserted in chambers and incubated at 37° C., 5% CO2 for 30 min to allow adequate anchoring to the filters. The monolayers were then exposed to serum-free media containing PCK3145 (300 μg/ml) added within the upper and lower compartment of the chambers. After 2 h, VEGF (50 ng/ml) was added in the lower chamber as a chemoattractant. Cell migration was allowed to proceed for another 3 h. Filters were then fixed, stained, and the migrated cells quantified by microscopy as described in the Methods section. […] The effect of. PCK on S1P-induced HUVEC migration was also measured, but no inhibition was observed (not shown) in this particular assay.

For “EWQTDNCETCTCYET (cysteine pairing not given here) [PCK3145 derivative, PCK3145 derivative with acetylaminomethyl groups on the three cysteines]”, the “MMP-9 secreted in the cell culture media (zymography)” value (MMP-9) was “dose-dependent reduction” and the “S1P-induced HUVEC migration” value (HUVEC) was “no inhibition”.
